Reference: US9907860B2, “Conjugated molecules comprising a peptide derived from the CD4 receptor coupled to an anionic polypeptide for the treatment of AIDS” (INSTITUT PASTEUR, priority 2014, dated 2018)

What was measured:
[1] = Cytotoxic activity, WST-1 cell proliferation assay; assay type: cell-based; details: human
Description: Cytotoxicity was determined using the water-soluble tetrazolium-1 (WST-1) cell proliferation assay, which is based on the cleavage of the tetrazolium salt WST-1 to a formazan dye by cellular dehydrogenases. Because this bioreduction is dependent on the glycolytic production of NAD(P)H in viable cells, the amount of formazan dye formed is correlated directly to the number of viable cells in a culture. Quantification is performed by measuring absorbance at 450 nm in a multiwell plate reader. An amount of 10^4 cells was plated per well in a 96-well plate, and a serial dilution of compound was added. Forty eight hours later, cell proliferation reagent was added and cell viability was measured compared to untreated control cultures. Cell viability was plotted against the compound concentration, and nonlinear regression analysis was performed to evaluate the 50% cytotoxic concentration (CC50).
The miniCD4 conjugates were then evaluated for their cytotoxic activity according to the protocol described above. All cytotoxic results are reported in the table below in the form of CC50 values (nM).

[2] = tested on: pREJO.c/2864 cl2 viral strain (B-R5); experiment: microbe, parasite or virus in culture; assay type: cell-based, HIV; details: Human immunodeficiency virus 1, TZM-bl, 48 h, read-out: EC50, viral strain pREJO.c/2864 cl2
Description: (§1) The antiviral activity of the tested compounds was determined by pre-incubating 10^4 TZM-bl cells/well in a 96-well plate for 30 min at 37° C. and 5% CO2 with or without a serial dilution of the compound. Next, 200 TCID50 of viruses were added to each well and cultures were incubated for 48 h before luciferase activity was quantified. Each compound was tested in triplicate in a single experiment. Antiviral activity was expressed as the percentage of viral inhibition compared to the untreated control and plotted against the compound concentration. Next, non-linear regression analysis was used to calculate the 50% effective concentration (EC50).
(§2) The miniCD4 conjugates were then evaluated for their antiviral activity on TZM-bl cells that express Luciferase under the control of the HIV LTR (collaboration G. Vanham, Anvers) according to the protocol described above. All antiviral results are reported in the table below in the form of EC50 values (nM).

[3] = tested on: MN viral strain (B-X4); experiment: microbe, parasite or virus in culture; assay type: cell-based, HIV; details: Human immunodeficiency virus 1; TZM-bl cells, luciferase, 48 h; clade-tropism B-X4
Description: as §1, §2

[4] = tested on: VI820 viral strain (A-X4R5); experiment: microbe, parasite or virus in culture; assay type: cell-based, HIV; details: Human immunodeficiency virus 1, TZM-bl, 48 h, read-out: EC50, viral strain VI820
Description: as §1, §2

[5] = tested on: MP568 (CRF02) viral strain (AG-R5); experiment: microbe, parasite or virus in culture; assay type: cell-based, HIV; details: Human immunodeficiency virus 1, TZM-bl, 48 h, read-out: EC50, viral strain MP568 (CRF02)
Description: as §1, §2

[6] = tested on: IIIB viral strain (B-X4); experiment: microbe, parasite or virus in culture; assay type: cell-based, HIV; details: Human immunodeficiency virus 1, IIIB; TZM-bl cells, luciferase, 48 h; clade-tropism B-X4
Description: as §1, §2

[7] = tested on: VI829 viral strain (C-R5); experiment: microbe, parasite or virus in culture; assay type: cell-based, HIV; details: Human immunodeficiency virus 1; TZM-bl cells, luciferase, 48 h; clade-tropism C-R5
Description: as §1, §2

[8] = tested on: VI824 viral strain (D-R5); experiment: microbe, parasite or virus in culture; assay type: cell-based, HIV; details: Human immunodeficiency virus 1, TZM-bl, 48 h, read-out: EC50, viral strain VI824
Description: as §1, §2

[9] = tested on: SF162 viral strain (B-R5); experiment: microbe, parasite or virus in culture; assay type: cell-based, HIV; details: Human immunodeficiency virus 1; TZM-bl cells, luciferase, 48 h; clade-tropism B-R5
Description: as §1, §2

[10] = tested on: p246F10 viral strain (C-R5); experiment: microbe, parasite or virus in culture; assay type: cell-based, HIV; details: Human immunodeficiency virus 1, TZM-bl, 48 h, read-out: EC50, viral strain p246F10
Description: as §1, §2

[11] = tested on: Ca10-3 (CRF01) viral strain (AE-X4); experiment: microbe, parasite or virus in culture; assay type: cell-based, HIV; details: Human immunodeficiency virus 1, TZM-bl, 48 h, read-out: EC50, viral strain Ca10-3 (CRF01)
Description: as §1, §2

[12] = tested on: Bal viral strain (B-R5); experiment: microbe, parasite or virus in culture; assay type: cell-based, HIV; details: Human immunodeficiency virus 1, BAL; TZM-bl cells, luciferase, 48 h; clade-tropism B-R5
Description: as §1, §2

[13] = tested on: VI1888 (CRF01) viral strain (AE-R5); experiment: microbe, parasite or virus in culture; assay type: cell-based, HIV; details: Human immunodeficiency virus 1, TZM-bl, 48 h, read-out: EC50, viral strain VI1888 (CRF01)
Description: as §1, §2

[14] = tested on: SHIV162p3 viral strain (B-R5); experiment: Antiviral activity on TZM-bl cells, SHIV162p3 strain; assay type: cell-based; details: luciferase, 48 h, clade-tropism B-R5
Description: as §1, §2

Q: With `Cc1cc(C)c(Nc2ccnc(Nc3ccc(C#N)cc3)n2)c(C)c1` [Dapivirine (TMC120), Dapivirine] as the molecule, how does the CC50 at 48 h [1] read?
A: 2520 nM

Q: What about the EC50 [2] of the same molecule?
A: 1.6 nM

Q: What about the EC50 [3] of the same molecule?
A: 1.5 nM

Q: What about the EC50 [4] of the same molecule?
A: 1.95 nM

Q: What about the EC50 [5] of the same molecule?
A: 1.1 nM

Q: What about the EC50 [6] of the same molecule?
A: 0.84 nM

Q: What about the EC50 [7] of the same molecule?
A: 1.3 nM

Q: And the EC50 [8]?
A: 1.2 nM

Q: And the EC50 [9]?
A: 1.3 nM

Q: What about the EC50 [10] of the same molecule?
A: 1.4 nM

Q: And the EC50 [11]?
A: 1.3 nM

Q: And the EC50 [12]?
A: 1.65 nM

Q: And the EC50 [13]?
A: 2.1 nM

Q: And the EC50 [14]?
A: > 1000 nM
